Data as given in patent publication US8273900B2, “Organic compounds” (Novartis AG, priority 2008, dated 2012).

Target: T1, human recombinant CRF-1 receptor (Homo sapiens, UniProt P34998)
T1 construct: expressed in transfected cells; host or cells: CHO cells (G418-selected)
T1 sequence (P34998 24-415): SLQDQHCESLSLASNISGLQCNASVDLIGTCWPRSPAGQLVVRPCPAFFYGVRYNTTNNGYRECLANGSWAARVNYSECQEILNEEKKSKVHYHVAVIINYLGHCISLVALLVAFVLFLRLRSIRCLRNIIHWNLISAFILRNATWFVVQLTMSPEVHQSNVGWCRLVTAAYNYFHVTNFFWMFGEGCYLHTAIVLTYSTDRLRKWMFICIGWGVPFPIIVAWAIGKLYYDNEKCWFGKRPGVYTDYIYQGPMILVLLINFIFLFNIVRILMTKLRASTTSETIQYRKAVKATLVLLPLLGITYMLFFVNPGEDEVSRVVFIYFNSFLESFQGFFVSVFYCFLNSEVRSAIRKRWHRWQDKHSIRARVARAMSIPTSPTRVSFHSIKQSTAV
Test: CRF-1 receptor antagonism, HTRF cAMP assay in CHO cells in the presence of 1 nM CRF
Assay type: cell-based
Conditions: CHO cells expressing human recombinant CRF-1; inhibition of the effect of 1 nM CRF on cAMP

- IC50: 62 nM
Structure (SMILES): Cc1cc(NC[C@H]2CC[C@H](NC(=O)c3cc(Cl)cnc3C)CC2)ncc1F [Example 19.54, Trans-5-chloro-N-(4-((5-fluoro-4-methylpyridin-2-ylamino)methyl)cyclohexyl)-2-methylnicotinamide]
